Reference: patent US20090203689A1, “ABCA-1 ELEVATING COMPOUNDS AND METHODS” (priority 2008, published 2009)

Test system: ABCA-1
Assay: Measurement of ABCA-1 protein expression (western blot) in liver of treated ZDF rats
Assay type: in vivo, ZDF (Zucker diabetic fatty) rats
Settings: treated at 0, 2 and 4 hrs, western blot quantitated by densitometry, normalized to time-point vehicle controls, time-course (FIG. 2)
Experimental: FIG. 2 illustrates the time-course of the effect of treatment on hepatic ABCA1 protein expression in ZDF rats. Rats were treated with a test compound of Formula I at 0, 2 and 4 hrs. […] ABCA1 protein expression was measured by western blot and quantitated by densitometry, Time-point vehicle controls were used to normalize ABCA1 expression at each time-point.
Cellular ABCA-1 protein expression in cells or tissues were quantitated from homogenates prepared from tissue or cells homogenized in a lysis buffer containing protease inhibitors. Lysate proteins were separated by SDS-PAGE and western blotted for ABCA11 and a housekeeping protein. ABCA-1 was detected with a mouse monoclonal antibody that cross-reacts with human, rat and mouse. β-Actin (or other commonly used normalization proteins) were detected with the appropriate commercial antibody. Using the described assay, the effect of treatment on hepatic ABCA1 protein expression in ZDF rats was determined. Rats were treated with a test compound of Formula I at 0, 2 and 4 hrs. […] Time-point vehicle controls were used to normalize ABCA1 expression at each time-point. The test compound of Formula I used in the experiments of FIG. 2 was 2-{6-[((1R,2R)-2-hydroxycyclopentyl)amino]purin-9-yl}(4S,5S,2R,3R)-5-[(2-fluorophenylthio)methyl]oxolane-3,4-diol.

O[C@@H]1[C@H](O)[C@@H](CSc2ccccc2F)O[C@H]1n1cnc2c(N[C@@H]3CCC[C@H]3O)ncnc21 [2-{6-[((1R,2R)-2-hydroxycyclopentyl)amino]purin-9-yl}(4S,5S,2R,3R)-5-[(2-fluorophenylthio)methyl]oxolane-3,4-diol]
hepatic ABCA1 protein expression: increases ABCA-1 protein expression with time
